Assay results: patent USRE48097E1, “Cephem compounds, their production and use” (priority 2015, dated 2020)
Values after ≈ are worked out from the molar mass of the structure shown. Where two headings read alike, the source gives them in different places. Each block holds one compound with its values, some of them ahead of it.

Assays:
Assay type in all cases: cell-based
[1] = tested on: E. coli 2668; test: MIC against E. coli 2668; details: Table 2, E. coli 2668, OXA-48
Excerpt: (§1) Without limitation, the present cephem compounds alone, or in combination with one or more β-lactamase inhibitors, may provide improved antibacterial efficacy, particularly in antibiotic-resistant bacterial strains. It is believed that the present compounds may be structurally different from known compounds and, as a result, may be more basic in nature. It is an advantage that the present compounds may extend the spectrum of effective bacterial compounds, particularly against previously-resistant bacteria (e.g. ESKAPE organisms), and/or gram negative bacteria, without significant side effects. In a preferred embodiment, the present cephem compound may comprise reference compound ceftazidime, which may be used alone, or in combination with one or more β-lactamase inhibitors, such as NXL-104. As shown, the foregoing composition was tested for minimum inhibitory concentration (MIC, μg/mL) against bacteria listed in Tables 2-3.

[2] = tested on: C. freundii 580; test: MIC against C. freundii 580; details: Table 2, C. freundii 580, Caz R, IMP S
Excerpt: as §1

[3] = tested on: K. pneumoniae 4108; test: MIC against K. pneumoniae 4108; details: K. pneumoniae 4108, KPC-3, TEM-166, SHV-12, SHV-141
Method: (§2) As shown, the foregoing composition was tested for minimum inhibitory concentration (MIC, μg/mL) against bacteria listed in Tables 2-3.

[4] = tested on: E. coli 4098; test: MIC against E. coli 4098; details: Table 2, E. coli 4098, CTX-M-15, TEM-1
Excerpt: as §1

[5] = tested on: E. cloacae 2044; test: MIC against E. cloacae 2044; details: Table 2, E. cloacae 2044, Caz S, IMP S
Excerpt: as §1

[6] = tested on: S. aureus 3136; test: MIC against S. aureus 3136; details: Table 2, S. aureus 3136, MSSA
Excerpt: as §1

[7] = tested on: S. pneumoniae 2493; test: MIC against S. pneumoniae 2493; details: Table 2, S. pneumoniae 2493, Pen R
Excerpt: as §1

[8] = tested on: S. pneumoniae 2404; test: MIC against S. pneumoniae 2404; details: Table 2, S. pneumoniae 2404, Pen S
Excerpt: as §1

[9] = tested on: K. pneumoniae 2713; test: MIC against K. pneumoniae 2713; details: Table 3, K. pneumoniae 2713, KPC-3, VIM-1
Method: as §2

[10] = tested on: P. aeruginosa 2686; test: MIC against P. aeruginosa 2686; details: Table 3, P. aeruginosa 2686, KPC-2
Method: as §2

[11] = tested on: C. freundii 579; test: MIC against C. freundii 579; details: Table 2, C. freundii 579, Caz R, IMP S
Excerpt: as §1

[12] = tested on: S. aureus 3144; test: MIC against S. aureus 3144; details: Table 2, S. aureus 3144, MSSA
Excerpt: as §1

[13] = tested on: S. pneumoniae 2492; test: MIC against S. pneumoniae 2492; details: Table 2, S. pneumoniae 2492, Pen R
Excerpt: as §1

[14] = tested on: S. pneumoniae ATCC 6301; test: MIC against S. pneumoniae ATCC 6301; details: Table 2, S. pneumoniae ATCC 6301, Pen S
Excerpt: as §1

[15] = tested on: E. cloacae 2710; test: MIC against E. cloacae 2710; details: Table 3, E. cloacae 2710, KPC-3, VIM-1
Method: as §2

[16] = tested on: E. cloacae 2706; test: MIC against E. cloacae 2706; details: Table 3, E. cloacae 2706, VIM-1, KPC-3
Method: as §2

[17] = tested on: K. baumanii 4091; test: MIC against K. baumanii 4091; details: Table 2, K. baumanii 4091, OXA-23
Excerpt: as §1

[18] = tested on: E. coli 2671; test: MIC against E. coli 2671; details: Table 2, E. coli 2671, VIM-19
Excerpt: as §1

[19] = tested on: S. pneumoniae 2406; test: MIC against S. pneumoniae 2406; details: Table 2, S. pneumoniae 2406, Pen S
Excerpt: as §1

[20] = tested on: K. baumanii 2579; test: MIC against K. baumanii 2579; details: Table 2, K. baumanii 2579, OXA-25
Excerpt: as §1

[21] = tested on: S. pneumoniae 2407; test: MIC against S. pneumoniae 2407; details: Table 2, S. pneumoniae 2407, Pen S
Excerpt: as §1

[22] = tested on: E. coli 4080; test: MIC against E. coli 4080; details: Table 2, E. coli 4080, TEM-10
Excerpt: as §1

[23] = tested on: S. pneumoniae 2405; test: MIC against S. pneumoniae 2405; details: Table 2, S. pneumoniae 2405, Pen S
Excerpt: as §1

[24] = tested on: K. pneumoniae 2689; test: MIC against K. pneumoniae 2689; details: K. pneumoniae 2689, KPC-2
Method: as §2

[25] = Escherichia coli, alone, read-out: MIC
[26] = Citrobacter freundii, alone, read-out: MIC
[27] = Klebsiella pneumoniae, 4108, Table 2, alone, read-out: MIC
[28] = Klebsiella pneumoniae, 4108, Table 3, alone, read-out: MIC
[29] = Table 2, in combination with NXL-104
[30] = Table 3, in combination with NXL-104
[31] = Enterobacter cloacae, alone, read-out: MIC
[32] = Staphylococcus aureus, alone, read-out: MIC
[33] = Streptococcus pneumoniae, alone, read-out: MIC
[34] = Klebsiella pneumoniae, alone, read-out: MIC
[35] = Pseudomonas aeruginosa, alone, read-out: MIC
[36] = Streptococcus pneumoniae, ATCC6301, alone, read-out: MIC
[37] = Klebsiella pneumoniae, 2689, Table 2, alone, read-out: MIC
[38] = Klebsiella pneumoniae, 2689, Table 3, alone, read-out: MIC

MIC [1, 25]: 0.5 µg/mL | MIC ([1]; in combination with NXL-104): 0.12 µg/mL | MIC [2, 26]: 4 µg/mL | MIC ([2]; in combination with NXL-104): 0.25 µg/mL | MIC [3, 27]: 16 µg/mL (≈ 22.6 µM) | MIC [3, 28]: 32 µg/mL (≈ 45.2 µM) | MIC [3, 29]: 0.50 µg/mL | MIC [3, 30]: 1 µg/mL | MIC [4, 25]: 32 µg/mL | MIC ([4]; in combination with NXL-104): 0.12 µg/mL | MIC [5, 31]: 0.12 µg/mL | MIC ([5]; in combination with NXL-104): ≤0.06 µg/mL | MIC [6, 32]: 4 µg/mL | MIC ([6]; in combination with NXL-104): 4.00 µg/mL | MIC [7, 33]: 2 µg/mL | MIC ([7]; in combination with NXL-104): 2.00 µg/mL | MIC [8, 33]: ≤ 0.06 µg/mL | MIC ([8]; in combination with NXL-104): ≤0.06 µg/mL | MIC [9, 34]: > 32 µg/mL | MIC ([9]; in combination with NXL-104): 2 µg/mL | MIC [10, 35]: 32 µg/mL (≈ 45.2 µM) | MIC ([10]; in combination with NXL-104): 8 µg/mL | MIC [11, 26]: 2 µg/mL | MIC ([11]; in combination with NXL-104): 0.25 µg/mL | MIC [12, 32]: 8 µg/mL | MIC ([12]; in combination with NXL-104): 8.00 µg/mL | MIC [13, 33]: 2 µg/mL | MIC ([13]; in combination with NXL-104): 2.00 µg/mL | MIC [14, 36]: ≤ 0.06 µg/mL | MIC ([14]; in combination with NXL-104): ≤0.06 µg/mL | MIC [15, 31]: > 32 µg/mL | MIC ([15]; in combination with NXL-104): >32 µg/mL | MIC [16, 31]: > 32 µg/mL | MIC ([16]; in combination with NXL-104): 32 µg/mL | MIC ([17]; alone, read-out: MIC): 16 µg/mL | MIC ([17]; in combination with NXL-104): 4.00 µg/mL | MIC [18, 25]: 32 µg/mL | MIC ([18]; in combination with NXL-104): 32.00 µg/mL | MIC [19, 33]: ≤ 0.06 µg/mL | MIC ([19]; in combination with NXL-104): ≤0.06 µg/mL | MIC ([20]; alone, read-out: MIC): > 32 µg/mL | MIC ([20]; in combination with NXL-104): 16.00 µg/mL | MIC [21, 33]: ≤ 0.06 µg/mL | MIC ([21]; in combination with NXL-104): ≤0.06 µg/mL | MIC [22, 25]: 16 µg/mL | MIC ([22]; in combination with NXL-104): 0.50 µg/mL | MIC [23, 33]: ≤ 0.06 µg/mL | MIC ([23]; in combination with NXL-104): ≤0.06 µg/mL | MIC [24, 37]: 16 µg/mL (≈ 22.6 µM) | MIC [24, 38]: 16 µg/mL (≈ 22.6 µM) | MIC [24, 29]: 1.00 µg/mL | MIC [24, 30]: 1 µg/mL
SMILES: CC(C)(O/N=C(\C(=O)N[C@@H]1C(=O)N2C(C(=O)[O-])=C(C[n+]3ccc4c(ccn4Cc4cc(C(=N)N)co4)c3)CS[C@H]12)c1csc(N)n1)C(=O)O [Example 6, (6R,7R)-7-{[(2Z)-2-(2-Amino-1,3-thiazol-4-yl)-2-{[(2-carboxypropan-2-yl)oxy]imino}acetyl]amino}-3-({1-[(4-carbamimidoylfuran-2-yl)methyl]-1H-pyrrolo[3,2-c]pyridin-5-ium-5-yl}methyl)-8-oxo-5-thia-1-azabicyclo[4.2.0]oct-2-ene-2-carboxylate]

MIC [1, 25]: 1 µg/mL | MIC [2, 26]: 16 µg/mL | MIC [3, 27]: 4 µg/mL (≈ 5.57 µM) | MIC [3, 28]: 32 µg/mL (≈ 44.6 µM) | MIC [4, 25]: 4 µg/mL | MIC [5, 31]: 0.25 µg/mL | MIC [6, 32]: 2 µg/mL | MIC [7, 33]: 4 µg/mL | MIC [8, 33]: 0.25 µg/mL | MIC [9, 34]: > 32 µg/mL | MIC [10, 35]: > 32 µg/mL | MIC [11, 26]: 4 µg/mL | MIC [12, 32]: 4 µg/mL | MIC [13, 33]: 2 µg/mL | MIC [14, 36]: ≤ 0.06 µg/mL | MIC [15, 31]: > 32 µg/mL | MIC [16, 31]: > 32 µg/mL | MIC ([17]; alone, read-out: MIC): 16 µg/mL | MIC [18, 25]: 16 µg/mL | MIC [19, 33]: ≤ 0.06 µg/mL | MIC ([20]; alone, read-out: MIC): 32 µg/mL | MIC [21, 33]: 0.12 µg/mL | MIC [22, 25]: 4 µg/mL | MIC [23, 33]: ≤ 0.06 µg/mL | MIC [24, 37]: 8 µg/mL (≈ 11.1 µM) | MIC [24, 38]: 16 µg/mL (≈ 22.3 µM)
SMILES: CC(C)(O/N=C(\C(=O)N[C@@H]1C(=O)N2C(C(=O)[O-])=C(C[n+]3ccc4c(ccn4Cc4ccc(C(=N)N)cc4)c3)CS[C@H]12)c1csc(N)n1)C(=O)O [Ex-1, (6R,7R)-7-{[(2Z)-2-(2-Amino-1,3-thiazol-4-yl)-2-{[(2-carboxypropan-2-yl)oxy]imino}acetyl]-amino}-3-{[1-(4-carbamimidoylbenzyl)-1H-pyrrolo[3,2-c]pyridin-5-ium-5-yl]methyl}-8-oxo-5-thia-1-azabicyclo[4.2.0]oct-2-ene-2-carboxylate]
